Measurements published in ChEMBL document CHEMBL3616395, “Discovery of 4-arylamido 3-methyl isoxazole derivatives as novel FMS kinase inhibitors” (Eur J Med Chem, 2015).
Each block holds one compound with its values, some of them ahead of it. Active and inactive are the calls of the source. The calls are words filed in the database; no cut-off is given here.

Experiments:
[1] = target: cAMP-dependent protein kinase (PKA) (Homo sapiens) (UniProt P22694+P17612+P22612); test: Inhibition of PKA (unknown origin) at 10 uM after 40 mins by scintillation counting analysis; assay type: protein assay
[2] = target: T1, Tyrosine-protein kinase Lyn (Homo sapiens, UniProt P07948); test: Inhibition of Lyn (unknown origin) after 40 mins by scintillation counting analysis
[3] = target: Serine/threonine-protein kinase B-raf (Homo sapiens, UniProt P15056, V600E); test: Inhibition of BRAF V599E mutant (unknown origin) after 40 mins by scintillation counting analysis
[4] = target: T1, Tyrosine-protein kinase Lyn; test: Inhibition of Lyn (unknown origin) at 10 uM after 40 mins by scintillation counting analysis
[5] = target: Mast/stem cell growth factor receptor Kit (Homo sapiens) (UniProt P10721); test: Inhibition of c-Kit (unknown origin) at 10 uM after 40 mins by scintillation counting analysis
[6] = target: Fibroblast growth factor receptor 3 (Homo sapiens) (UniProt P22607); test: Inhibition of FGFR3 (unknown origin) at 10 uM after 40 mins by scintillation counting analysis
[7] = target: Cyclin-dependent kinase 1/cyclin B (Homo sapiens) (UniProt P06493+P14635+Q8WWL7+O95067); test: Inhibition of CDK1/cyclin B (unknown origin) at 10 uM after 40 mins by scintillation counting analysis; assay type: protein-complex assay
[8] = target: Serine/threonine-protein kinase PLK1 (Homo sapiens) (UniProt P53350); test: Inhibition of PLK1 (unknown origin) at 10 uM after 40 mins by scintillation counting analysis
[9] = target: ALK tyrosine kinase receptor (Homo sapiens) (UniProt Q9UM73); test: Inhibition of ALK (unknown origin) at 10 uM after 40 mins by scintillation counting analysis
[10] = target: T2, Macrophage colony-stimulating factor 1 receptor (Homo sapiens, UniProt P07333); test: Inhibition of FMS (unknown origin) at 10 uM after 40 mins by scintillation counting analysis
T2 sequence (P07333 whole entry): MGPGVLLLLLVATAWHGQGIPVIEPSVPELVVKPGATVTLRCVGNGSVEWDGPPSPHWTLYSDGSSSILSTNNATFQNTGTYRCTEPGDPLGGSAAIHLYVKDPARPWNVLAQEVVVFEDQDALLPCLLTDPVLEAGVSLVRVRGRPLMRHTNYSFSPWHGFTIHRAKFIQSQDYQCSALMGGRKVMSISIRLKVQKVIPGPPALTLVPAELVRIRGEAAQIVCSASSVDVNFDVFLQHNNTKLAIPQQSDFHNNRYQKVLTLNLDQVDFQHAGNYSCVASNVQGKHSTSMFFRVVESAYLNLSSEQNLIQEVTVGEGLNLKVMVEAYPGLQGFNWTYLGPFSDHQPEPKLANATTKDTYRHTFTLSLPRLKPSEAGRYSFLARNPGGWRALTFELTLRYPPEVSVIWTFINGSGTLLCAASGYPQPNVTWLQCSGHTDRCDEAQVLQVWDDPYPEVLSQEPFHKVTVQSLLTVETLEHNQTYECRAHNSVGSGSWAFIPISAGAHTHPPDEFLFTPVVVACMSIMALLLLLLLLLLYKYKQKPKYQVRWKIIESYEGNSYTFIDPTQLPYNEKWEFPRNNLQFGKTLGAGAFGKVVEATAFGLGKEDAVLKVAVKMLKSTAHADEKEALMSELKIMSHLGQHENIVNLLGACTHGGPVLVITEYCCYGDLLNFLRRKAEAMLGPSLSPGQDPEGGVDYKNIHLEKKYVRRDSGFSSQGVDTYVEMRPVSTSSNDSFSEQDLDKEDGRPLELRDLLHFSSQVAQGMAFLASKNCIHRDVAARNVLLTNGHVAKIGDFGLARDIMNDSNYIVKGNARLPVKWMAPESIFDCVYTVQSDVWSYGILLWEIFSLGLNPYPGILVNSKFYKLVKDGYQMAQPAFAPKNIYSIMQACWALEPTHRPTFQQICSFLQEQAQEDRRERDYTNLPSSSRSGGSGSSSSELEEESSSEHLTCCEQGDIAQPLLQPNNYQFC

[11] = target: Fibroblast growth factor receptor 2 (Homo sapiens) (UniProt P21802); test: Inhibition of FGFR2 (unknown origin) at 10 uM after 40 mins by scintillation counting analysis
U-937 = test: Antiproliferative activity against human U937 cells after 24 hrs by MTT assay; assay type: functional; conditions: U-937, 24 h
[12] = target: Macrophage-stimulating protein receptor (Homo sapiens) (UniProt Q04912); test: Inhibition of RON (unknown origin) at 10 uM after 40 mins by scintillation counting analysis
[13] = target: T3, RAF proto-oncogene serine/threonine-protein kinase (Homo sapiens, UniProt P04049); test: Inhibition of C-Raf (unknown origin) after 40 mins by scintillation counting analysis
T3 sequence (P04049 whole entry): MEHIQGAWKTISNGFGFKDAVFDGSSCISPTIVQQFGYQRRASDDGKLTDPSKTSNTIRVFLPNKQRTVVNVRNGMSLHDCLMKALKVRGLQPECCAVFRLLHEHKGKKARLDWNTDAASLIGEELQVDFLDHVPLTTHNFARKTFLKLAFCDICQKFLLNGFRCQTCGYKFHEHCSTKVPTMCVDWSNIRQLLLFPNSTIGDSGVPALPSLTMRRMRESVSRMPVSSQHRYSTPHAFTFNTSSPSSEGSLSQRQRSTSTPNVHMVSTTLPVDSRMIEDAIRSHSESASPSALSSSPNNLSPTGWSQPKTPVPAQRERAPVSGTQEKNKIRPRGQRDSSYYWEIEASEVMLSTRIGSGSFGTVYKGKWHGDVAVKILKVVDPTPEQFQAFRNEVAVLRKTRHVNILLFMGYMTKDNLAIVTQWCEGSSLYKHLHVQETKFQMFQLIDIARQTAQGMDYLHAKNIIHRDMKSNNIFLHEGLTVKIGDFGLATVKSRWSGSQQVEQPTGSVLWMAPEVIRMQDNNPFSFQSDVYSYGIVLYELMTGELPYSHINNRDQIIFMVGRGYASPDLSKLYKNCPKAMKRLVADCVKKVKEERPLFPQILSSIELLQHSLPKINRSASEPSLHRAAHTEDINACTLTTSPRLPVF

[14] = target: T4, Serine/threonine-protein kinase B-raf (Homo sapiens, UniProt P15056); test: Inhibition of BRAF (unknown origin) after 40 mins by scintillation counting analysis
T4 sequence (P15056 whole entry): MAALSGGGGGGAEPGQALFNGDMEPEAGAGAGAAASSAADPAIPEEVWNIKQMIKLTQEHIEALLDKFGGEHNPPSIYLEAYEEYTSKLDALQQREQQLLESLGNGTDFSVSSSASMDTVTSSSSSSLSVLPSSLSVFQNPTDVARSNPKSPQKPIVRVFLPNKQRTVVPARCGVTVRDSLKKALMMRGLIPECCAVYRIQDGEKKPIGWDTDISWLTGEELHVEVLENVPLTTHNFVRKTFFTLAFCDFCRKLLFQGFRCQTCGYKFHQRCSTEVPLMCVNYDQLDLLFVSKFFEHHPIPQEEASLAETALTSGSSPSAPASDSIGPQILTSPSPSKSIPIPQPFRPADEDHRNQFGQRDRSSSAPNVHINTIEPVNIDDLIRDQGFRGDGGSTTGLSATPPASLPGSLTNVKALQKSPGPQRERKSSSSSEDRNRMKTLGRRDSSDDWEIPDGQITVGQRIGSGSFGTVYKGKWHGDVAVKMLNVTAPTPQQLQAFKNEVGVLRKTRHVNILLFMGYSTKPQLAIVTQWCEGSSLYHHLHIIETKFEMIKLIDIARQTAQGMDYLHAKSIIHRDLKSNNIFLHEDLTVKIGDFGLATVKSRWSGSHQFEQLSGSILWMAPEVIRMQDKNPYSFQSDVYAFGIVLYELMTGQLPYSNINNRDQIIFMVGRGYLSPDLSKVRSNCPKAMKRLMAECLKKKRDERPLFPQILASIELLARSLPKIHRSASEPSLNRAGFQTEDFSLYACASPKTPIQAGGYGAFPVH

[15] = target: Vascular endothelial growth factor receptor 2 (Homo sapiens) (UniProt P35968); test: Inhibition of VEGFR2 (unknown origin) at 10 uM after 40 mins by scintillation counting analysis
[16] = target: Insulin-like growth factor 1 receptor (Homo sapiens) (UniProt P08069); test: Inhibition of IGF1R (unknown origin) at 10 uM after 40 mins by scintillation counting analysis
[17] = target: T2, Macrophage colony-stimulating factor 1 receptor; test: Inhibition of FMS (unknown origin) after 40 mins by scintillation counting analysis
[18] = target: Epidermal growth factor receptor (Homo sapiens) (UniProt P00533); test: Inhibition of EGFR (unknown origin) at 10 uM after 40 mins by scintillation counting analysis
[19] = target: Hepatocyte growth factor receptor (Homo sapiens) (UniProt P08581); test: Inhibition of c-MET (unknown origin) at 10 uM after 40 mins by scintillation counting analysis
[20] = target: Focal adhesion kinase 1 (Homo sapiens) (UniProt Q05397); test: Inhibition of FAK (unknown origin) at 10 uM after 40 mins by scintillation counting analysis
[21] = target: T4, Serine/threonine-protein kinase B-raf; test: Inhibition of BRAF (unknown origin) at 10 uM after 40 mins by scintillation counting analysis
[22] = target: T5, Serine/threonine-protein kinase mTOR (Homo sapiens, UniProt P42345); test: Inhibition of mTOR (unknown origin) at 10 uM after 40 mins by scintillation counting analysis
[23] = target: Cyclin-dependent kinase 2/cyclin E (Homo sapiens) (UniProt P24864+P24941+O96020); test: Inhibition of CDK2/cyclin E (unknown origin) at 10 uM after 40 mins by scintillation counting analysis; assay type: protein-complex assay
[24] = target: Dual specificity mitogen-activated protein kinase kinase 1 (Homo sapiens) (UniProt Q02750); test: Inhibition of MEK1 (unknown origin) at 10 uM after 40 mins by scintillation counting analysis
[25] = target: RAC-alpha serine/threonine-protein kinase (Homo sapiens) (UniProt P31749); test: Inhibition of AKT1 (unknown origin) at 10 uM after 40 mins by scintillation counting analysis
RAC-alpha serine/threonine-protein kinase (Homo sapiens), sequence (P31749 whole entry): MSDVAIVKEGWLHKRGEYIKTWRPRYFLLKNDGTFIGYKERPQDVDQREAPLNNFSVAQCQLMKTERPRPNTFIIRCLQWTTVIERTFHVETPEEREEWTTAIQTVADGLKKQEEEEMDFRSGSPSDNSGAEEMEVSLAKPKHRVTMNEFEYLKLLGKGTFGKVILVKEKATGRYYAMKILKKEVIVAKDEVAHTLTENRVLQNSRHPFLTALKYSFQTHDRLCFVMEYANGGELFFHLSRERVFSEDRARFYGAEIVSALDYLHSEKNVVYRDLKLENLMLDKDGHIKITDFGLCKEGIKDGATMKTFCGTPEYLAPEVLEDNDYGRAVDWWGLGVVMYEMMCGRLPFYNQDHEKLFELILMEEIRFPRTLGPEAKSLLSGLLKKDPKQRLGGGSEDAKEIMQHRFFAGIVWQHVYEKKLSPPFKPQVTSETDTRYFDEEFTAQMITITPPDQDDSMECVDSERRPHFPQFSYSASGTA

[26] = target: T3, RAF proto-oncogene serine/threonine-protein kinase; test: Inhibition of RAF1 (unknown origin) at 10 uM after 40 mins by scintillation counting analysis
[27] = target: Mitogen-activated protein kinase 10 (Homo sapiens) (UniProt P53779); test: Inhibition of JNK3 (unknown origin) at 10 uM after 40 mins by scintillation counting analysis
Mitogen-activated protein kinase 10 (Homo sapiens), sequence (P53779 whole entry): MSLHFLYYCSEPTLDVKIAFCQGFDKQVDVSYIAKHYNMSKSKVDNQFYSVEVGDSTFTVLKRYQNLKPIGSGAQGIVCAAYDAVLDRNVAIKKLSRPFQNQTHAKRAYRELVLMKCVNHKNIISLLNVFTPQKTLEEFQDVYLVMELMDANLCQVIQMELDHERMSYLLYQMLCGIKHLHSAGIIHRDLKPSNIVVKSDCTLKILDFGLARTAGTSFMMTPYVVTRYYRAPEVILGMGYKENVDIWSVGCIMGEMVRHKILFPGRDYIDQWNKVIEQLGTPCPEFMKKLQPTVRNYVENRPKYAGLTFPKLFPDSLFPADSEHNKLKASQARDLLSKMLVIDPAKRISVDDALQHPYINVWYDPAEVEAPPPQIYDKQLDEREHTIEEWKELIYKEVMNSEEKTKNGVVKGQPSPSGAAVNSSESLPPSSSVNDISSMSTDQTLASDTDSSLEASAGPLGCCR

[28] = target: Tyrosine-protein kinase JAK3 (Homo sapiens) (UniProt P52333); test: Inhibition of Jak3 (unknown origin) at 10 uM after 40 mins by scintillation counting analysis
[29] = Cytotoxicity against human HS27 cells after 24 hrs by MTT assay; assay type: cell-based
A375P = test: Antiproliferative activity against human A375P cells after 24 hrs by MTT assay; assay type: functional, cell-based
[30] = test system: Serine/threonine-protein kinase B-raf (Homo sapiens), P15056 [V600E]; test: Inhibition of BRAF V599E mutant (unknown origin) at 10 uM after 40 mins by scintillation counting analysis
Serine/threonine-protein kinase B-raf (Homo sapiens), P15056 [V600E], sequence (P15056 whole entry V600E): as the sequence (P15056 whole entry) above, with V600E counted along it

[31] = target: Glycogen synthase kinase-3 beta (Homo sapiens) (UniProt P49841); test: Inhibition of GSK3b (unknown origin) at 10 uM after 40 mins by scintillation counting analysis
[32] = target: Proto-oncogene tyrosine-protein kinase ROS (Homo sapiens) (UniProt P08922); test: Inhibition of ROS1 (unknown origin) at 10 uM after 40 mins by scintillation counting analysis
[33] = target: Receptor-type tyrosine-protein kinase FLT3 (Homo sapiens) (UniProt P36888); test: Inhibition of FLT3 (unknown origin) at 10 uM after 40 mins by scintillation counting analysis
Receptor-type tyrosine-protein kinase FLT3 (Homo sapiens), sequence (P36888 whole entry): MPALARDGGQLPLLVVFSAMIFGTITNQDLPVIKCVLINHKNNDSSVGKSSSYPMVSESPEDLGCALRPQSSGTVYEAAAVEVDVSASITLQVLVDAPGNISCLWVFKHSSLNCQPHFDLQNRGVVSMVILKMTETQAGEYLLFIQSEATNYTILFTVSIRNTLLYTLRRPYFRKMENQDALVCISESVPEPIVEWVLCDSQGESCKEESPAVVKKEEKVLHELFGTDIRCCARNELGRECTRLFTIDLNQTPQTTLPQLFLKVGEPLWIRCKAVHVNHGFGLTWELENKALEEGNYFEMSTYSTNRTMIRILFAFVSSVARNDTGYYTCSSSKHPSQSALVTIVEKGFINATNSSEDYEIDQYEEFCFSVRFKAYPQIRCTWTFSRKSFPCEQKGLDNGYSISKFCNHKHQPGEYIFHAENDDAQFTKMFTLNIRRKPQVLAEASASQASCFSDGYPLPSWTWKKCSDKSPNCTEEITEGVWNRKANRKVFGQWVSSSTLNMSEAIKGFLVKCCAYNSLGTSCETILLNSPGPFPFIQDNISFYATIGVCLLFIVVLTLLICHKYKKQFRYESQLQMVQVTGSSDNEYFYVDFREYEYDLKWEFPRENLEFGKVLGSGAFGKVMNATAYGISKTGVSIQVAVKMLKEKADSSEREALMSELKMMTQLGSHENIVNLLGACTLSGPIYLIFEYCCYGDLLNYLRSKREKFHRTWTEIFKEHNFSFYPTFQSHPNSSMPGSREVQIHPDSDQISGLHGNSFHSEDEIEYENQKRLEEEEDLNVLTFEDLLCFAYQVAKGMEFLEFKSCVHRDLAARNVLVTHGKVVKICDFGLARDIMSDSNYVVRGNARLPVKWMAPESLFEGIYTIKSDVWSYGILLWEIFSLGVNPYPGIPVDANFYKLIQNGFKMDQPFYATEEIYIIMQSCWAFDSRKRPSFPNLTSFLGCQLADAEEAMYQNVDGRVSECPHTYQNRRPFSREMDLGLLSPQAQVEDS

[34] = target: Tyrosine-protein kinase SYK (Homo sapiens) (UniProt P43405); test: Inhibition of SYK (unknown origin) at 10 uM after 40 mins by scintillation counting analysis
[35] = target: Aurora kinase A (Homo sapiens) (UniProt O14965); test: Inhibition of Aurora A (unknown origin) at 10 uM after 40 mins by scintillation counting analysis
[36] = target: Mitogen-activated protein kinase 3 (Homo sapiens) (UniProt P27361); test: Inhibition of ErK1 (unknown origin) at 10 uM after 40 mins by scintillation counting analysis
Mitogen-activated protein kinase 3 (Homo sapiens), sequence (P27361 whole entry): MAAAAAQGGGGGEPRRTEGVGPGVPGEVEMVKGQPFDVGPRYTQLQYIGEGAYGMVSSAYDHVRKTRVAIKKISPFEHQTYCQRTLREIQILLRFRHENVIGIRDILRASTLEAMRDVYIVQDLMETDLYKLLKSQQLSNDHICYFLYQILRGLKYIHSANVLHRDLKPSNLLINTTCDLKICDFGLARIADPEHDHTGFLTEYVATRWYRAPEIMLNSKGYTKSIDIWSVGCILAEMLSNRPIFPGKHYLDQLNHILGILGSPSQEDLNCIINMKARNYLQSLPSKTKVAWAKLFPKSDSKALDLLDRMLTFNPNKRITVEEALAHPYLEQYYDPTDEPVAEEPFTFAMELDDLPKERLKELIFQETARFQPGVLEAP

[37] = target: T5, Serine/threonine-protein kinase mTOR; test: Inhibition of mTOR (unknown origin) after 40 mins by scintillation counting analysis

SMILES: Cc1ccc(NC(=O)c2cc(N3CCN(C)CC3)cc(C(F)(F)F)c2)cc1NC(=O)c1cnoc1C
inhibition [1]: 0%
IC50 [2]: 0.0659 µM
IC50 [3]: 0.668 µM
inhibition [4]: 97.8%
inhibition [5]: 7.5%
inhibition [6]: 0%
inhibition [7]: 0%
inhibition [8]: 0%
inhibition [9]: 0%
inhibition [10]: 98.7%
inhibition [11]: 3.6%
GI50 (U-937): 0.016 µM
inhibition [12]: 0%
IC50 [13]: 0.0448 µM
IC50 [14]: 5.96 µM
inhibition [15]: 8.27%
inhibition [16]: 0%
IC50 [17]: 0.00995 µM
inhibition [18]: 4.68%
inhibition [19]: 0%
inhibition [20]: 0%
inhibition [21]: 61.2%
inhibition [22]: 1.14%
inhibition [23]: 1.85%
inhibition [24]: 0%
inhibition [25]: 5.73%
inhibition [26]: 95.9%
inhibition [27]: 15.3%
inhibition [28]: 0%
GI50 at 24 h [29]: > 30 µM
Activity (A375P): inactive
inhibition [30]: 87.9%
inhibition [31]: 0%
inhibition [32]: 0%
inhibition [33]: 2.12%
inhibition [34]: 3.81%
inhibition [35]: 0%
inhibition [36]: 7.54%

SMILES: CCCS(=O)(=O)Nc1ccc(NC(=O)c2cnoc2C)c(C)c1
GI50 (U-937): > 30 µM
GI50 at 24 h [29]: > 30 µM
Activity (A375P): inactive

SMILES: O=c1cc(N2CCOCC2)oc2c(-c3ccccc3)cccc12 [LY-294002]
IC50 [37]: 9.9 µM

SMILES: Cc1cc(NC(=O)c2cc(N3CCN(C)CC3)cc(C(F)(F)F)c2)ccc1NC(=O)c1cnoc1C
GI50 (U-937): > 30 µM
GI50 at 24 h [29]: > 30 µM
Activity (A375P): inactive

SMILES: CNC(=O)c1cc(Oc2ccc(NC(=O)Nc3ccc(Cl)c(C(F)(F)F)c3)cc2)ccn1 [SORAFENIB]
GI50 at 24 h [29]: > 30 µM
Activity (A375P): inactive

SMILES: Cc1ccc(NC(=O)c2cnn(-c3ccccc3)c2C(F)(F)F)cc1NC(=O)c1cnoc1C
GI50 (U-937): 0.139 µM
GI50 at 24 h [29]: > 30 µM
Activity (A375P): inactive

SMILES: Cc1ccc(NC(=O)Cc2ccc(-c3ccccc3)cc2)cc1NC(=O)c1cnoc1C
GI50 (U-937): > 30 µM
GI50 at 24 h [29]: > 30 µM
Activity (A375P): inactive

SMILES: Cc1cn(-c2cc(C(=O)Nc3ccc(C)c(NC(=O)c4cnoc4C)c3)cc(C(F)(F)F)c2)cn1
GI50 (U-937): 0.049 µM
GI50 at 24 h [29]: > 30 µM
Activity (A375P): inactive

Second part, led by results:

GI50 (U-937): > 30 µM
SMILES: Cc1ccc(NC(=O)Nc2cc(Cl)cc(Cl)c2)cc1NC(=O)c1cnoc1C
GI50 at 24 h [29]: > 30 µM
Activity (A375P): inactive

GI50 (U-937): > 30 µM
SMILES: Cc1cc(NC(=O)Nc2ccc(Cl)cc2)ccc1NC(=O)c1cnoc1C
GI50 at 24 h [29]: > 30 µM
Activity (A375P): inactive

GI50 (U-937): > 30 µM
SMILES: Cc1ccc(NC(=O)Nc2ccc(Cl)c(C(F)(F)F)c2)cc1NC(=O)c1cnoc1C
GI50 at 24 h [29]: > 30 µM
Activity (A375P): inactive

GI50 (U-937): 3.1 µM
SMILES: Cc1cc(C)cc(C(=O)Nc2ccc(C)c(NC(=O)c3cnoc3C)c2)c1
GI50 at 24 h [29]: > 30 µM
Activity (A375P): inactive

GI50 (U-937): > 30 µM
SMILES: Cc1cc(NC(=O)Nc2cc(Cl)cc(Cl)c2)ccc1NC(=O)c1cnoc1C
GI50 at 24 h [29]: > 30 µM
Activity (A375P): inactive

GI50 (U-937): > 30 µM
SMILES: Cc1ccc(NC(=O)Nc2cccc(C(F)(F)F)c2)cc1NC(=O)c1cnoc1C
GI50 at 24 h [29]: > 30 µM
Activity (A375P): inactive

GI50 (U-937): > 30 µM
SMILES: Cc1cc(NC(=O)Nc2ccc(Cl)c(Cl)c2)ccc1NC(=O)c1cnoc1C
GI50 at 24 h [29]: > 30 µM
Activity (A375P): inactive

GI50 (U-937): 1.89 µM
SMILES: Cc1ccc(NC(=O)Nc2ccc(Cl)c(Cl)c2)cc1NC(=O)c1cnoc1C
GI50 at 24 h [29]: > 30 µM
Activity (A375P): inactive

GI50 (U-937): 16.5 µM
SMILES: Cc1cc(NC(=O)Nc2ccc(Cl)c(C(F)(F)F)c2)ccc1NC(=O)c1cnoc1C
GI50 at 24 h [29]: > 30 µM
Activity (A375P): inactive
